Results: patent US11648289B2, “Antibacterial method” (priority 2016, dated 2023)
Like-named read-outs stand apart in the source and are kept apart here. No end group written: not given here.

Assays:
E. faecalis LMGT 3330 = test system: E. faecalis LMGT 3330
Protocol: (§1) Bacterial strains, growth conditions, bacteriocins and antimicrobial assays. All the strains (see below) used in minimal inhibitory concentration (MIC) assays (Varahan et al., 2014, M. Bio. 5:e01726-01714) were grown in BHI medium (Oxoid) at 30° C. without shaking. A collection of E. faecium strains isolated from blood in patients from different European hospitals was received from Department of Medical Microbiology, University Medical Center Utrecht, the Netherlands. […] Synthesized peptides were solubilized to concentrations of 10.0-0.1 mg/ml in 0.1% (vol/vol) trifluoroacetic acid and stored at −20° C. until use. […] Bacteriocin activity was determined by microtiter plate assay as previously described (Holo et al., 1991, J. Bacteriol., 173:3879-3887). The MIC was defined as the minimal bacteriocin concentration that inhibited the growth of the indicator strain by at least 50% (50% of the turbidity of the control culture without bacteriocin) in 200 μl culture. CD Spectroscopy Circular dichroism (CD) spectra were recorded using a Jasco J-810 spectropolarimeter (Jasco International Co) calibrated with D-camphor-10-sulfonate (Icatayama Chemical). All measurements were made using a quartz cuvette (Sterna) with 0.1 cm path length. Samples were scanned five times with a scanning rate of 50 nm/min with a bandwidth of 0.5 nm and response time of 1 s over the wavelength range 190-250 nm. Spectra were recorded at different (30 and 50%) trifluoroethanol (TFE) (Aldridge) concentrations at 25° C. The approximate α-helical content of the protein was estimated from its molar ellipticity at 222 nm (Scholtz et al., 1991, Biopolymers 31:1463-1470). NMR Spectroscopy The experiments were run on a sample containing 1.0 mM EntK1, 50% D3-TFE (99.5% D) (Aldrich), Milli-Q water and 0.2 mM of 4,4-dimethyl-4-silapentane-1-sulfonic acid (DSS) (Larodan). 2D NOESY (Jeener et al., 1979, J. Magn. Reson., 71:4546-4553), 2D TOCSY (Braunschweiler and Ernst, 1983, J. Magn. Reson., 53:521-528), 2D DQCOSY, ^15N-HSQC (Davis et al., 1992, J. Magn. Reson., 98:207-216) and ^13C-HSQC (Hurd, 1991, J. Magn. Reson., 91:648-653) were recorded. The data was acquired on a 600 MHz Bruker Avance II spectrometer with four channels and a 5 mm TCI cryoprobe (Bruker Biospin). NOESY spectra with mixing times between 120 ms and 300 ms were obtained for both samples. TOCSY mixing times of 15-80 ms were used. The experiments were run at 298.15 K. Spectra were processed using the Topspin program (Bruker Biospin). 4,4-dimethyl-4-silapentane-1-sulfonic acid (DSS) was used as a chemical shift standard, and ^15N and ^13C data were referenced using frequency ratios as described in (Wishart et al., 1995, J. Biomol. NMR., 6:135-140). For visualization, assignment and integration of the spectra the computer program CARA was used (Keller, 2004, The Computer Aided Resonance Assignment Tutorial. CANTINA Verlag, Goldau, Switzerland). The spectra were assigned using standard methods. Dihedral angle restraints were obtained from the chemical shift values using the program TALOS-N(Shen and Bax, 2013, J. Biomol. NMR, 56:227-241). Nuclear Overhauser effect (NOE) distance restraints were calculated from the peak volumes in the NOESY spectra with NOESY mixing time of 200 ms. All structure calculations were made using the structure calculation program CYANA 2.1 (Guntert et al., 1997, J. Mol. Biol., 273:283-298; Herrmann et al., 2002, J. Mol. Biol., 319:209-227). The annealing macro in CYANA calculated 100 structures. The 20 structures with the lowest energy were kept and analyzed further. The root-mean-square deviation (RMSD) was calculated and the structures were visualized using MolMol (Koradi et al., 1996, J. Mol. Graph., 14:51-55, 29-32). Generation of bacteriocin resistant mutants of E. faecalis and E. faecium.

E. faecalis LMGT 3386 = test system: E. faecalis LMGT 3386
Protocol: as §1

S. pneumoniae ds 221 = conditions: ds 221, no rseP
Protocol: as §1

[1] = test system: L. monocytogenes LMGT 2605
Protocol: as §1

S. pneumoniae ms5 = conditions: for MIC: ms5, rseP HExxH>AAxxA, induced with ComS (2 μM)
Protocol: as §1

[2] = test system: Staphylococcus. aureus LMGT 3310
Protocol: as §1

[3] = test system: Lactobacillus sakei LMGT 2334
Protocol: as §1

E. faecium 928379 A* = conditions: isolated from blood, Vancomycin-resistant
Protocol: as §1

E. faecium 14-597963* = conditions: E. faecium 14-597963, isolated from blood, Vancomycin-resistant
Protocol: as §1

E. hirae (4) = conditions: E. hirae (4), Table 6B
Protocol: (§2) All the strains (see below) used in minimal inhibitory concentration (MIC) assays (Ovchinnikov et al., 2017, Front Microbiol., 8, p774, doi:10.3389/fmicb.2017.00774) were grown in BHI medium (Oxoid) at 30° C. without shaking. The tested strains were obtained from the LMG collection. […] NisinZ and micrococcin P1 were purified from source. Synthesized peptides were solubilized to concentrations of 10.0-0.1 mg/ml in 0.1% (vol/vol) trifluoroacetic acid and stored at −20° C. until use. Garvicin KS is made up of 3 peptides:
(§3) Bacteriocin activity was determined using a microtitre plate assay. The plates were incubated at 30° C. for 8 h and the growth was measured spectrophotometrically at 600 nm (A600) with 15 min intervals using SPECTROstarNano (BMG LABTECH, Germany). The MIC was defined as the bacteriocin concentration that inhibited the growth of the indicator strain by at least 50% in 200 μl culture (i.e., 50% of the turbidity of the control culture without bacteriocin).

Listeria spp. (3) = conditions: Listeria spp. (3), Table 6B
Protocol: as §2, §3

E. faecium (2) = conditions: E. faecium (2), Table 6B
Protocol: as §2, §3

E. faecalis (2) = conditions: E. faecalis (2), Table 6B
Protocol: as §2, §3

## MKTILRFVAGYDIASHKKKTGGYPWERGKA [LsbB, reference compound]
E. faecalis LMGT 3330
  MIC 50: >7 µM
E. faecalis LMGT 3386
  MIC 50: >7 µM
S. pneumoniae ds 221
  MIC: >7 µM
[1]
  MIC 50: >7 µM
S. pneumoniae ms5
  MIC: >7 µM
[2]
  MIC 50: >7 µM
[3]; LMGT 2334
  MIC 50: >7 µM

## MKFKFNPTGTIVKKLTQYEIAWFKNKHGYYPWEIPRC [EntK1]
E. faecalis LMGT 3330
  MIC 50: >5.5 µM
E. faecalis LMGT 3386
  MIC 50: >5.5 µM
S. pneumoniae ds 221
  MIC: >5.5 µM
E. faecium 928379 A*
  MIC 50: 0.02 µM
[1]
  MIC 50: >5.5 µM
E. faecium 14-597963*
  MIC 50: 0.045 µM
S. pneumoniae ms5
  MIC: >5.5 µM
[2]
  MIC 50: >5.5 µM
[3]; Lactobacillus sakei LMGT 2334
  MIC 50: >5.5 µM
E. hirae (4)
  MIC: 0.2 to 0.8 µg/mL
Listeria spp. (3)
  MIC: >50 µg/mL
E. faecium (2)
  MIC: <0.02 to 0.4 µg/mL
E. faecalis (2)
  MIC: >25 µg/mL

## MLAKIKAMIKKFPNPYTLAAKLTTYEINWYKQQYGRYPWERPVA [EntEJ97]
E. faecalis LMGT 3330
  MIC 50: 0.145 µM
E. faecalis LMGT 3386
  MIC 50: 0.295 µM
S. pneumoniae ds 221
  MIC: >4.5 µM
E. faecium 928379 A*
  MIC 50: 0.075 µM
[1]
  MIC 50: 1.175 µM
E. faecium 14-597963*
  MIC 50: 0.145 µM
S. pneumoniae ms5; all three conserved RseP residues replaced with alanines
  times more resistant than the WT: 30 times
S. pneumoniae ms5
  MIC: 0.6 µM
[2]
  MIC 50: 0.59 µM
[3]; Lactobacillus sakei LMGT 2334
  MIC 50: >4.7 µM
E. hirae (4)
  MIC: 0.4 to 1.6 µg/mL
Listeria spp. (3)
  MIC: 12.5 to 25 µg/mL
E. faecium (2)
  MIC: 0.8 to 1.6 µg/mL
E. faecalis (2)
  MIC: 3.1 µg/mL
